In patent US20250314636A1, “METHOD OF PREPARING AND EXPANDING A POPULATION OF IMMUNE CELLS FOR CANCER THERAPY, POTENCY ASSAY FOR TUMOR RECOGNITION, BIOLOGICAL VACCINE PREPARATION AND EPITOPETARGET FOR ANTIBODIES” (FUNDAÇÃO D. ANNA DE SOMMER CHAMPALIMAUD E DR. CARLOS MONTEZ …, priority 2022, published 2025):

Key:
[1] = tested on: TIL; assay: Peptide recognition assay in TIL (IFN-γ ELISA / IL-17 in supernatant, 7 days); format: cell-based, human; set-up: IFN-γ production, TIL: unit not given here; conditions: for IFN-γ production, TIL: 10e4 TIL/well co-cultured with the peptide for 7 days, supernatant tested; for Pancreatic TIL D1599 IFN-y / Pancreatic TILD1599 IL 17: Pancreatic TIL D1599
Method: (§1) Peptides from tumor-associated antigens (TAAs), listed in Table 5 were placed at 1 ug/well in duplicates using anti-CD3 at 30 ng/mL as well as PHA at 5 μg/mL as positive controls.
(§2) The differences in TIL versus PBMCs can also be defined by peptide reactivity. 10e^4 TIL or 10e^4 PBMC/well were co-cultured with the peptides listed in Table 11 below for 7 days and the supernatants were tested for IFN-γ production.

[2] = tested on: PBMCs; assay: Peptide recognition assay in PBMCs (IFN-γ in supernatant, 7 days); format: cell-based, human; conditions: 10e4 PBMC/well co-cultured with the peptide for 7 days, supernatant tested
Method: as §1, §2

Sequence | IFN-γ production, TIL [1] | IFN-γ production, PBMCs [2] | Pancreatic TIL D1599 IFN-y [1] | Pancreatic TILD1599 IL 17 [1]
ALACWGVRGSLLSEA | 0 | 0 |  | 
ALACWGVRGSLLSEA [Mesothelin MPF-12] |  |  | 0 pg/mL | 0 pg/mL
DILDTAGLEEYSAMR | 0 | 0 |  | 
DILDTAGLEEYSAMR [KRAS_Q61L] |  |  | 24 pg/mL | 0 pg/mL
ELNNALQNL | 6 | 0 |  | 
ELNNALQNL [ESAT6, reference compound] |  |  | 0 pg/mL | 0 pg/mL
FVAESAEVLLPRLVS | 0 | 0 |  | 
FVAESAEVLLPRLVS [Mesothelin MPF-14] |  |  | 0 pg/mL | 0 pg/mL
GIPFIETSAKTRQRVED [Kras_P14 (A146 WT)] |  |  | 0 pg/mL | 0 pg/mL
GIPFIETSTKTRQRVED | 85 | 0 |  | 
GIPFIETSTKTRQRVED [Kras_P15 (A146T)] |  |  | 0 pg/mL | 0 pg/mL
HRLSEPPEDLDALPL | 0 | 0 |  | 
HRLSEPPEDLDALPL [Mesothelin MPF-8] |  |  | 0 pg/mL | 0 pg/mL
IPFIETSVKTRQRVE [KRAS_A146V] |  |  | 5 pg/mL | 0 pg/mL
KLVVVGAGDVGKSALTI | 0 | 0 |  | 
KLVVVGAGDVGKSALTI [Kras_P9 (G13D)] |  |  | 0 pg/mL | 3 pg/mL
KLVVVGAGGVGKSALTI | 0 | 0 |  | 
KLVVVGAGGVGKSALTI [Kras_P8 (G13 WT)] |  |  | 0 pg/mL | 108 pg/mL
KLVVVGAVGVGKSAL | 0 | 0 |  | 
KLVVVGAVGVGKSAL [KRAS_G12F] |  |  | 36 pg/mL | 0 pg/mL
LAFQPPISNHPAPEY | 0 | 0 |  | 
LAFQPPISNHPAPEY [SMAD4 [D1 private peptide]] |  |  | 0 pg/mL | 0 pg/mL

Sequence | IFN-γ production, TIL [1] | IFN-γ production, PBMCs [2] | Pancreatic TIL D1599 IFN-y [1] | Pancreatic TILD1599 IL 17 [1]
LDILDTAGHEEYSAMRD | 0 | 0 |  | 
LDILDTAGHEEYSAMRD [Kras_P12 (Q61H)] |  |  | 0 pg/mL | 4 pg/mL
LDILDTAGKEEYSAMRD | 0 | 0 |  | 
LDILDTAGKEEYSAMRD [Kras_P11 (Q61K)] |  |  | 0 pg/mL | 0 pg/mL
LDILDTAGQEEYSAMRD | 0 | 0 |  | 
LDILDTAGQEEYSAMRD [Kras_P10 (Q61 WT)] |  |  | 0 pg/mL | 0 pg/mL
LDILDTAGREEYSAMRD | 150 | 0 |  | 
LDILDTAGREEYSAMRD [Kras_P13 (Q61R)] |  |  | 0 pg/mL | 0 pg/mL
LDVLYPKARLAFQNM | 0 | 0 |  | 
LDVLYPKARLAFQNM [Mesothelin GPI P14] |  |  | 0 pg/mL | 11 pg/mL
LLPRGAPERQRLLPA | 0 | 0 |  | 
LLPRGAPERQRLLPA [Mesothelin MPF-11] |  |  | 0 pg/mL | 0 pg/mL
LQGGIPNGYLVLDLS | 0 | 0 |  | 
LQGGIPNGYLVLDLS [Mesothelin GPI P40 (596-610)] |  |  | 0 pg/mL | 0 pg/mL
LVVVGAGAVGKSALT | 0 | 0 |  | 
LVVVGAGAVGKSALT [KRAS_G13A] |  |  | 19 pg/mL | 0 pg/mL
LVVVGAGCVGKSALT | 0 | 0 |  | 
LVVVGAGCVGKSALT [KRAS_G13C] |  |  | 26 pg/mL | 0 pg/mL
LVVVGAGRVGKSALT | 0 | 0 |  | 
LVVVGAGRVGKSALT [KRAS_G13R] |  |  | 29 pg/mL | 0 pg/mL
LVVVGAGSVGKSALT | 0 | 0 |  | 
